Source: publication PMC9421656, “Beyond Retigabine: Design, Synthesis, and Pharmacological Characterization of a Potent and Chemically Stable Neuronal Kv7 Channel Activator with Anticonvulsant Activity” (Journal of Medicinal Chemistry, 2022)
Where “and” joins values, the source holds several entries; their conditions need not be identical. Identical values can stand only once.

Assays:
Kv7.2 S303A channels = molecular target: T1, Kv7.2 S303A channels (Homo sapiens, UniProt O43526, S303A); assay: Whole-cell patch-clamp on homomeric Kv7.2 S303A mutant channels; type: cell-based; conditions: 10 μM RET or 1 μM 60
T1 construct: expressed in transfected cells; host or cells: CHO cells, transient transfection (pcDNA3.1)
Description: Current scale, 200 pA; time scale, 200 ms. (B,C) Dose–response curves reporting the effects of the 3 indicated compounds on the V1/2 shift (ΔV1/2) in mV (B) and on maximal current density (Idrug/Icontrol; C) calculated at +20 mV for Kv7.2/Kv7.3 channels.
Channel subunits were expressed in Chinese hamster ovary (CHO) cells by transient transfection, using plasmids containing cDNAs encoding human Kv7.2 and/or Kv7.3, all cloned in the pcDNA3.1 vector. According to the experimental protocol, these plasmids were expressed individually or in combination, together with a plasmid-expressing enhanced green fluorescent protein (Clontech, Palo Alto, CA) used as a transfection marker. Total cDNA in the transfection mixture was kept at 4 μg. CHO cells were grown in 100 mm plastic Petri dishes in Dulbecco’s modified Eagle’s medium containing 10% fetal bovine serum, nonessential amino acids (0.1 mM), penicillin (50 U/mL), and streptomycin ([…]) in a humidified atmosphere at 37 °C with 5% CO2.
Currents from CHO cells were recorded at room temperature (20–22 °C) using the whole-cell configuration of the patch-clamp technique, with glass micropipettes of 3–5 MΩ resistance. During the recording, constant perfusion of extracellular solution was maintained. […] The pipette (intracellular) solution contained (in mM): 140 KCl, 2 MgCl2, 10 EGTA, 10 HEPES, 5 Mg^2+-ATP, at pH 7.3–7.4, with KOH. […]

[1] = In vitro metabolism assay (S9 fraction of human liver microsomes); type: in vitro ADME
Experimental: To further explore the metabolic stability of compounds 25, 26, and 60 in a biologically relevant model, they were tested in an in vitro metabolism assay (S9 fraction of human liver microsomes) using retigabine as a comparator.[33],[34] In this assay, a very small extent (4.7 ± 0.5%) of retigabine undergoes phase I metabolism, whereas a larger fraction (17.4 ± 1.2%) was metabolized in phase II reactions, as previously reported.[35]

Kv7.2 W236L channels = molecular target: T2, Kv7.2 W236L channels (Homo sapiens, UniProt O43526, W236L); assay: Whole-cell patch-clamp on homomeric Kv7.2 W236L mutant channels; type: cell-based; conditions: 10 μM RET or 1 μM 60
T2 construct: expressed in transfected cells; host or cells: CHO cells, transient transfection (pcDNA3.1)

PTZ-induced seizures = assay: Pentylenetetrazol (PTZ)-induced acute seizures in mice; type: in vivo, C57Bl/6 mice; conditions: for Seizure score (Lüttjohann's scale): 30 min before PTZ 100 mg/kg s.c.; for Latency to maximal seizures: 30 min before PTZ; for Survival rate in PTZ seizure model: end of 60 min observation; for Minimum effective dose: i.p., PTZ model
Experimental: A subcutaneous (s.c.) injection of 100 mg/kg PTZ in mice is able to trigger convulsive behavior whose intensity can be assessed and quantified according to the revised Lüttjohann’s scale (see Materials and Methods),[40] using a 9-point severity score ranging from 0 (whisker trembling) to 8 (wild jumping). For each animal, the maximal severity score (Figure 5A) and the time latency required to reach such values (Figure 5B) were recorded.
Food and water were available ad libitum. Animals were experimentally naive and were used only once.
Thus, each dose was dissolved to allow injection of 0.01 mL/g, i.p. The control group was represented by mice injected only with vehicle solution (saline containing 2% Tween-20 and 2% PEG-400).
PTZ was injected, and animals were placed in clear Plexiglass boxes for observation of seizure activity. The severity of convulsions (from minimal “clonic” to maximal “generalized tonic–clonic”) as well as the latency to onset of maximal seizure was recorded.
0 = whisker trembling, 1 = sudden behavioral arrest, 2 = facial jerking, 3 = neck jerks, 4 = clonic seizures (sitting), 5 = tonic clonic seizures (lying on belly), 6 = clonic seizures (lying on side), 7 = tonic clonic seizures (lying on side), 8 = wild jumping. The behavioral assessments described above were performed in a blind manner and the observers had to reach a unanimous agreement regarding the scoring of the behavior.
The number of animals needed for the experiment was determined using the power analysis software GPower version 3.1.92. The required minimum sample size was 8 mice per group. Statistical analyses were performed using GraphPad Prism (GraphPad Software, LaJolla, CA) using a one-way analysis of variance with the Tukey post-hoc test. The P value of <0.05 was accepted as indicative of a statistically significant difference.

[2] = S9 fraction of human liver microsomes
[3] = 3 mg/kg i.p., listed as Retigabine

Compound	Kv7 opening ability in S303A channels (Kv7.2 S303A channels)	Phase I turnover metabolism [1, 2] [%]	Phase II turnover metabolism [1, 2] [%]	Kv7 opening ability in W236L channels (Kv7.2 W236L channels)	Seizure score (Lüttjohann's scale) (PTZ-induced seizures; 1 mg/kg i.p.)	Latency to maximal seizures (PTZ-induced seizures; 3 mg/kg i.p.)	Seizure score (Lüttjohann's scale) (PTZ-induced seizures; 3 mg/kg i.p.)	Seizure score (Lüttjohann's scale) (PTZ-induced seizures; [3])	Latency to maximal seizures (PTZ-induced seizures; [3]) [s]	Survival rate in PTZ seizure model (PTZ-induced seizures; 3 mg/kg i.p.)	Survival rate in PTZ seizure model (PTZ-induced seizures; 3 mg/kg i.p., listed as retigabine) [%]	Minimum effective dose (PTZ-induced seizures) [mg/kg]	Phase I turnover metabolism ([1]; human) [%]	Phase II turnover metabolism ([1]; human) [%]	Latency to maximal seizures (PTZ-induced seizures; 0.3 mg/kg i.p.)	Animals surviving in PTZ seizure model (PTZ-induced seizures; 1 mg/kg i.p., surviving/treated animals)	Survival rate in PTZ seizure model after XE991 pretreatment (PTZ-induced seizures; compound 60 with XE991 3 mg/kg i.p. pretreatment) [%]
CCOC(=O)Nc1ccc(NCc2ccc(F)cc2)cc1N [RET, retigabine]	slightly but significantly reduced	4.7 ± 0.5	17.4 ± 1.2	almost fully abolished	6.9 ± 0.3	1041.4±223.2 (at 3 mg/Kg) s	7.3±0.3 (at 3 mg/Kg)	7.3 ± 0.3	1041.4 ± 223.2	40% (at 3 mg/Kg)	40	3					
CC(C)(C)CC(=O)Nc1ccc(NCc2ccc(C(F)(F)F)cc2)c(F)c1N [compound 60, N-(2-Amino-3-fluoro-4-((4-(trifluoromethyl)benzyl)amino)phenyl)-3,3-dimethylbutanamide]	slightly but significantly reduced			almost fully abolished								0.3	8.2 ± 2.7	15.6 ± 0.3	1159.7 ± 169.4 s and 1159.7±169.4 (at 0.3 mg/Kg) s	8/8	75
